Results as given in patent US5298652A, “N-substituted glycines, inhibitors of phospholipase A2” (Hoffmann-La Roche Inc., priority 1992, dated 1994).

The compounds below were run on paw edema induced by phospholipase A2 from Naja naja venom (assay: Phospholipase A2 rat paw edema). Settings: 30 mg/kg ip, 1 hr prior to PLA2, 2 hr, read-out: % Inhib of PLA2 Paw Edema 2 hr 30 mg/kg ip.
Type: in vivo, Lewis rats
In the case of CCCCCCCCCCCCCCCCCCOc1ccc(O)c(C(=O)N(CC(=O)O)CC(=O)O)c1 [Example 62, N-(carboxymethyl)-N-[2-hydroxy-5-(octadecyloxy)benzoyl]glycine], the inhibition in vivo at 30 mg/kg is reported as 60%.
CCCCCCCCCCCCCCCCCCOc1cc(OCCOCCOCCOCC)cc(C(=O)N(CC(=O)O)CC(=O)O)c1 [Example 48, N-(carboxymethyl)-N-[3-[2-[2-(2-ethoxyethoxy)ethoxy]ethoxy]-(5-octadecyloxy)benzoyl]glycine] was tested, and the inhibition in vivo at 30 mg/kg was 43%.
For CCCCCCCCCCCCCCCCCCOc1cccc(C(=O)N(CC(=O)O)CC(=O)O)c1 [Example 4, N-(Carboxymethyl)-N-[3-(octadecyloxy)benzoyl]glycine], the inhibition in vivo at 30 mg/kg was 35%.
CCCCCCCCCCCCCCCCCCOc1cc(OCCCOc2cccc([N+](=O)[O-])c2)cc(C(=O)N(CC(=O)O)CC(=O)O)c1 [Example 22, N-(Carboxymethyl)-N-[3-[3-(3-nitrophenoxy)propoxy]-5-(octadecyloxy)benzoyl]glycine] showed an inhibition in vivo at 30 mg/kg of 64%.
In the case of CCCCCCCCCCOc1cc(OCCCCCCCCCC)cc(C(=O)C(=O)N(CC(=O)O)CC(=O)O)c1 [Example 73, N-(Carboxymethyl)-N-[[3,5-bis(decyloxy)phenyl]-1,2-dioxoethyl]glycine], the inhibition in vivo at 30 mg/kg is reported as 32%.
Work on CCCCCCCCCCCCCC(=O)Nc1cc(NC(=O)CCCCCCCCCCCCC)cc(C(=O)N(CC(=O)O)CC(=O)O)c1 [Example 56, N-(Carboxymethyl)-N-[3,5-bis(1-oxotetradecylamino)benzoyl]glycine] yielded an inhibition in vivo at 30 mg/kg of 57%.
In the case of CCCCCCCCCCCCCCCCCCOc1cc(OCCCOc2cccc(N)c2)cc(C(=O)N(CC(=O)O)CC(=O)O)c1 [Example 23, N-(Carboxymethyl)-N-[3-[3-(3-aminophenoxy)propoxy]-5-(octadecyloxy)benzoyl]glycine], the inhibition in vivo at 30 mg/kg is reported as 40%.
CCCCCCCCCCOc1cc(OCCCCCCCCCC)cc(C(=O)N(CC(=O)O)CC(=O)O)c1 [Example 11, N-(Carboxymethyl)-N-[3,5-bis(decyloxy)benzoyl]glycine] showed an inhibition in vivo at 30 mg/kg of 0%.
For CCCCCCCCCCCCCCCCCCOc1ccc(C(=O)C(=O)N(CC(=O)O)CC(=O)O)cc1 [Example 65, N-(Carboxymethyl)-N-[2-[4-(octadecyloxy)phenyl]-1,2-dioxoethyl]glycine], the inhibition in vivo at 30 mg/kg was 71%.
